The test system of data set [1] is urinary glucose excretion. Kind of data set: Assay for the facilitatory effect on urinary glucose excretion. The data set is classed as in vivo. To be noted: SD rats, 1 mg/kg intravenous, oral glucose 2 g/kg; in 24 hours per 200 g of body weight. Here is the method: Assay for the Facilitatory Effect on Urinary Glucose Excretion
As experimental animal, overnight fasted SD rats (SLC., male, 7 weeks of age, 180–240 g) were used. Ten mg of test compound was suspended or dissolved in 300 μL of ethanol and then dissolved by adding of 1.2 mL of polyethylene glycol 400 and 1.5 mL of saline, and then 3.3 mg/mL solution was prepared. Three hundred μL of this solution was dissolved with 2.7 mL of the solution for dilution (saline:polyethylene glycol 400:ethanol=5:4:1) and then 0.33 mg/mL solution was prepared. After the body weights of rats were measured, the solution of test compound was intravenously injected to the tail vein at the dose of 3 mL/kg (1 mg/kg). For control, just only the solution (saline:polyethylene glycol 400:ethanol=5:4:1) was intravenously injected to the tail vein at the dose of 3 mL/kg. Immediately after intravenous injection to the tail vein, 200 g/L of glucose solution was orally administered to the rats at the dose of 10 mL/kg (2 g/kg). The intravenous injection to the tail vein was performed with 26 G injection needle and 1 mL syringe. The oral administration was performed with gastric tube for rat and 2.5 mL syringe. The head count in one group was 2 or 3. Collection of urine was performed in metabolic cage after the oral administration of glucose was finished. The sampling time for collection of urine was 24 hours after the oral administration of glucose. After the collection of urine was finished, the urine volume was recorded and the urinary glucose concentration was measured. The glucose concentration was measured with a kit for laboratory test: Glucose B-Test WAKO (Wako Pure Chemical Industries, Ltd.). The amount of urinary glucose excretion in 24 hours per 200 g of body weight was calculated from urine volume, urinary glucose concentration and body weight.

In another data set the target is T1, human SGLT2 (Homo sapiens, UniProt P31639, I433V).
T1 construct: expressed in transfected cells; host or cells: COS-7 cells (RIKEN CELL BANK RCB0539), transient, electroporation
T1 sequence (P31639 1-672 I433V): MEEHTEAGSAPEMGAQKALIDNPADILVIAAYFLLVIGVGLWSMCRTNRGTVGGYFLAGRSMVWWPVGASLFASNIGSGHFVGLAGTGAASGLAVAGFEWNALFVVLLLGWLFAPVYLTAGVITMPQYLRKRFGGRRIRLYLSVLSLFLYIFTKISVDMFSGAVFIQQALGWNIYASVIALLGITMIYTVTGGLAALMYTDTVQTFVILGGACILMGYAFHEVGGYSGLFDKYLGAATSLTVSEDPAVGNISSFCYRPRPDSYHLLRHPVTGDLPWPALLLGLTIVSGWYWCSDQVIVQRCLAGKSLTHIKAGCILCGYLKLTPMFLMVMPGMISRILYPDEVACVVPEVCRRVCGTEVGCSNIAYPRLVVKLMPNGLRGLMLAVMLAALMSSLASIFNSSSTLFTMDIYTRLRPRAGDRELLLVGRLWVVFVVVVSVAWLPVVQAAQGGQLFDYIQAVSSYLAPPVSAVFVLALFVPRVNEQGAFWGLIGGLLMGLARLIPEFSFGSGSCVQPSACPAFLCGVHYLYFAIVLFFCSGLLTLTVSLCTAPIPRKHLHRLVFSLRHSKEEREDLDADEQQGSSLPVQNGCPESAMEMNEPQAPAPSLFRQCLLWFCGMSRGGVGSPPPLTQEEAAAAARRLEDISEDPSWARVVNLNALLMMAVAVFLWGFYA
In words: Assay for inhibitory effect on human SGLT2 activity (uptake of methyl-α-D-glucopyranoside). The data set is classed as cell-based. The following applies: COS-7 cells transiently expressing human SGLT2; uptake of methyl-α-D-(U-14C)glucopyranoside, 37° C., 2 hours. As to the method: Assay for Inhibitory Effect on Human SGLT2 Activity
Preparation of the cDNA library for PCR amplification was performed by reverse transcription of a total RNA deprived from human kidney (Ori gene) with oligo dT as the primer, using […] Preamplification System (Gibco-BRL: LIFE TECHNOLOGIES). […] The amplified DNA fragment was ligated into pCR-Blunt (Invitrogen), a vector for cloning, according to standard method of the kit. […] The amplified DNA fragment was digested with restriction enzymes, Xho I and Hind III, and then purified with Wizard Purification System (Promega).
KL29, the plasmid coding human SGLT2, was transfected into COS-7 cells (RIKEN CELL BANK RCB0539) by electroporation. Electroporation was performed with GENE PULSER II (Bio-Rad Laboratories) under the condition: 0.290 kV, 975 μF, 2×10^6 cells of COS-7 cell and 20 μg of KL29 in 500 μL of OPTI-MEM I medium (Gibco-BRL: LIFE TECHNOLOGIES) in the 0.4 cm type cuvette. After the gene transfer, the cells were harvested by centrifugation and resuspended with OPTI-MEM I medium (1 mL/cuvette). To each well in 96-wells plate, 125 μL of this cell suspension was added.

The next data set relates to ICR mice. In words: Acute toxicity test. The data set is classed as in vivo. To be noted: male ICR mice, 2000 mg/kg subcutaneous, 5 animals. Here is the method: Five weeks old male ICR mice (CLEA JAPAN, INC. 29–34 g, 5 animals in each group) were fasted for 4 hours, and 666 mg/mL of a suspension which was prepared by adding saline:polyethylene glycol 400:ethanol (5:4:1) to 2-[4-(2-hydroxyethyl)benzyl]phenyl β-D-glucopyranoside (the compound described in Example 10) was subcutaneously administered at the dose of 3 mL/kg (2000 mg/kg).

As usually defined, the IC50 is the midpoint of a concentration-inhibition curve. Read a high IC50 as weaker potency.

As to `COc1ccc(Cc2ccccc2O[C@@H]2O[C@H](CO)[C@@H](O)[C@H](O)[C@H]2O)cc1` [Example 1, 2-(4-Methoxybenzyl)phenyl β-D-glucopyranoside], the “Amount of urinary glucose excretion” value in data set [1] came to 27.4 mg.
As for `CCCOc1ccc(Cc2ccc(CO)cc2O[C@@H]2O[C@H](CO)[C@@H](O)[C@H](O)[C@H]2O)cc1` [Example 7, 5-Hydroxymethyl-2-(4-propoxybenzyl)phenyl β-D-glucopyranoside], the IC50 against human SGLT2 was 0.14 µM. Also, in data set [1], the “Amount of urinary glucose excretion” value is reported as 109.1 mg.
`CCc1ccc(Cc2ccc(CO)cc2O[C@@H]2O[C@H](CO)[C@@H](O)[C@H](O)[C@H]2O)cc1` [Example 8, 2-(4-Ethylbenzyl)-5-hydroxymethylphenyl β-D-glucopyranoside] gave an IC50 at human SGLT2 of 0.0081 µM. The “Amount of urinary glucose excretion” value in data set [1] is on record as 238.9 mg.
Take `OCCc1ccc(Cc2ccc(CO)cc2O[C@@H]2O[C@H](CO)[C@@H](O)[C@H](O)[C@H]2O)cc1` [Example 9, 2-[4-(2-Hydroxyethyl)benzyl]-5-hydroxymethylphenyl β-D-glucopyranoside]: the half-maximal inhibitory concentration (IC50) at human SGLT2 was found to be 0.027 µM. This counts as double-digit nanomolar.
For `OCCc1ccc(Cc2ccccc2O[C@@H]2O[C@H](CO)[C@@H](O)[C@H](O)[C@H]2O)cc1` [Example 10, 2-[4-(2-Hydroxyethyl)benzyl]phenyl β-D-glucopyranoside], in the data set on ICR mice, the “Death until 24 hours after the administration” value is given as “No death was observed”. The molecule further showed an IC50 against human SGLT2 of 0.21 µM. In addition, the “Amount of urinary glucose excretion” value in data set [1] is given as 69.5 mg.
The molecule `OCCCc1ccc(Cc2ccccc2O[C@@H]2O[C@H](CO)[C@@H](O)[C@H](O)[C@H]2O)cc1` [Example 11, 2-[4-(3-Hydroxypropyl)benzyl]phenyl β-D-glucopyranoside] showed a half-inhibitory concentration (IC50) against human SGLT2 of 0.075 µM.

These data come from patent US7045665B2, “Glucopyranosyloxybenzylbenzene derivatives, medicinal compositions containing the same and intermediates for the preparation of the derivatives” (Kissei Pharmaceutical Co., Ltd., priority 2000, dated 2006).
